Assay results reported in patent publication US8653071B2, “α4β2 neuronal nicotinic acetylcholine receptor ligands” (Suven Life Sciences Limited, priority 2009, dated 2014).

Key:
[1] = Rodent pharmacokinetic study; type: in vivo; details: Wistar, in vivo, Wister rat/Male
Summary of the method: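 Rats, fasted overnight, received NCE orally (15 or 5 mg/kg) and intravenously (5 mg/kg) on day 0 and day 2. Jugular blood sampled pre-dose to 24 h (n=3); plasma NCE measured by LC-MS/MS. Cmax, Tmax, AUCt, T1/2 and bioavailability derived by non-compartmental analysis.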

[2] = system: Male Wister rats; assay: Object recognition task model; type: in vivo, rat; details: 1 mg/kg, p.o.
Method: Object Recognition Task Model
The cognition-enhancing properties of compounds of this invention were estimated using a model of animal cognition: the object recognition task model.
Male Wister rats (230-280 grams) obtained from N. I. N. (National Institute of Nutrition, Hyderabad, India) was used as experimental animals. Four animals were housed in each cage. […] Also the rats were habituated to individual arenas for 1 hour in the absence of any objects.
One group of 12 rats received vehicle (1 mL/Kg) orally and another set of animals received compound of the formula (I) either orally or i.p., before one hour of the familiar (T1) and choice trial (T2).
The experiment was carried out in a 50×50×50 cm open field made up of acrylic. In the familiarization phase, (T1), the rats were placed individually in the open field for 3 minutes, in which two identical objects (plastic bottles, 12.5 cm height×5.5 cm diameter) covered in yellow masking tape alone (a1 and a2) were positioned in two adjacent corners, 10 cm. from the walls. After 24 hours of the (T1) trial for long-term memory test, the same rats were placed in the same arena as they were placed in T1 trial. Choice phase (T2) rats were allowed to explore the open field for 3 minutes in presence of one familiar object (a3) and one novel object (b) (Amber color glass bottle, 12 cm high and 5 cm in diameter). Familiar objects presented similar textures, colors and sizes. During the T1 and T2 trial, explorations of each object (defined as sniffing, licking, chewing or having moving vibrissae whilst directing the nose towards the object at a distance of less than 1 cm) were recorded separately by stopwatch. Sitting on an object was not regarded as exploratory activity, however, it was rarely observed.
T1 is the total time spent exploring the familiar objects (a1+a2).
T2 is the total time spent exploring the familiar object and novel object (a3+b).
The object recognition test was performed as described by Ennaceur, A., Delacour, J., 1988, A new one-trial test for neurobiological studies of memory in rats—Behavioural data, Behav. Brain Res., 31, 47-59.

[3] = system: Male Wister rats; assay: Reversal of formalin induced nociception; type: in vivo; details: p.o.; rat
Method: Reversal of Formalin Induced Nociception
The anti-nociceptive properties of compounds of this invention were evaluated using a model of pain: the Formalin Induced Nociception model. Male Wister rats (230-280 grams) obtained from N. I. N. (National Institute of Nutrition, Hyderabad, India) was used as experimental animals.
Rats were habituated for 20 minutes in the arena before the experiment was started. Duration of licks, bites and flinches were noted from 0-10 minutes and 20-35 minutes after administration of formalin, subplantar into the right hind paw at concentrations of 5% v/v. 50 μL of water for injection was injected into the right hind paw of the rats of the sham group. Compounds of this invention were administered orally prior to formalin administration.

[4] = in vivo; details: male, Wistar, rat, po, 15 mg/kg
Method: Rodent Brain Penetration Study
Three animals were housed in each cage. Animals were given water and food ad libitum throughout the experiment, and maintained on a 12 hours light/dark cycle.
NCE compound was dissolved in water and administered orally. At Tmax (0.5, 1.0 and 2.0) animals were sacrificed to collect the plasma and brain tissue and were homogenized. Plasma and Brain was stored frozen at −20° C. until analysis. The concentrations of the NCE compound in plasma and Brain were determined using LC-MS/MS method.
The NCE compounds were quantified in plasma and brain homogenate by validated LC-MS/MS method using solid phase extraction technique. NCE compounds were quantified in the calibration range of 1-500 ng/mL in plasma and brain homogenate. Study samples were analyzed using calibration samples in the batch and quality control samples spread across the batch. Extents of brain-blood ratio were calculated (Cb/Cp).

[5] = system: Male Wister rats; assay: Acute food intake study (animal model of hyperphagia); type: in vivo, rat; details: oral
Method: The appetite suppressing properties of compounds of this invention were studied using an animal model of hyperphagia.
Male Wister rats (200-210 grams) obtained from Raj Biotech, India were used as experimental animals. The experiment consisted of 6 days. The rats were adapted to the 18 hour fasting and 6 hour feeding pattern. The animals were housed in a group of three in the cages provided with the fasting grills and were fasted for 18 hours. After 18 hour fasting the rats were separated and placed individually in a cage. Weighed amount of feed was provided to rats for 6 hour and the feed intake at 1, 2, 4 and 6 hours was recorded. Again the rats were regrouped and fasted for 18 hour. The above procedure was followed for 5 days. The average cumulative food intake by the rats on the last 3 days was calculated. Animals were randomised on the basis of their last three days food intake.
One group of 8 rats received vehicle (2 mL/Kg) orally and another set of animals received compound of the formula (I) orally. Then the rats were given access to food and the food intake at 1, 2, 4 and 6 hours was recorded. The food intake by the rats treated with test compound was compared with the vehicle treated group by using students‘t’ test.

[6] = system: Male Sprague Dawley rats; assay: DRL-72s model of animal depression; type: in vivo; details: p.o.; rat
Method: The antidepressant properties of compounds of this invention were evaluated using a model of animal depression: the DRL-72s model. Male Sprague Dawley rats were used as experimental animals. Rats are trained to lever press for a 4″ access to 0.025 ml of water for each correct response during daily 60 minute sessions. All testing takes place on weekdays only. At the beginning of each session, the house light is illuminated and remains lit until the session ends. No other stimuli are presented during testing. After successful lever press training, rats are then required to respond under a DRL-24 second schedule, where only lever presses that are separated by 24 seconds are reinforced. Upon stable responding on a DRL-24 second schedule (5-10 sessions), rats are trained on a DRL-72 second schedule until responding stabilizes at approximately 15% efficiency (approx 25-35 sessions). Specifically, rats receive a reinforcer for each response that is emitted at least 72 seconds after the previous response (IRT). […] Efficiency is recorded as number of reinforced responses÷total number of responses. After stable baseline responding is achieved, defined as responding for 4 consecutive sessions with no more than 10% variability, animals begin drug testing. Animals receive drug no more than 1× per week.

`CNCC1CC2CC2N1c1cccnc1.Cl` (centres unmarked) [Example 4, N-[2-(Pyridin-3-yl)-2-azabicyclo[3.1.0]hex-3-ylmethyl]methylamine hydrochloride] showed an AUC(0-t) ([1]; 5 mg/kg, Intravenous) of 1670 ± 154 ng·h/mL, a Cmax ([1]; 5 mg/kg, Intravenous) of 956 ± 164 ng/mL and a Tmax ([1]; 5 mg/kg, Intravenous) of 0.08 h. It also gave a half-life ([1]; 5 mg/kg, Intravenous) of 5.82 ± 0.53 h, a bioavailability ([1]; 15 mg/kg Per-Oral vs 5 mg/kg Intravenous) of 105 ± 9% and an AUC(0-t) ([1]; 15 mg/kg, Per-Oral) of 5280 ± 652 ng·h/mL. It also gave a Cmax ([1]; 15 mg/kg, Per-Oral) of 1560 ± 294 ng/mL, a Tmax ([1]; 15 mg/kg, Per-Oral) of 0.33 ± 0.14 h and a half-life ([1]; 15 mg/kg, Per-Oral) of 4.48 ± 0.76 h. For the same molecule, the Inference [2] was “Active”, the “Exploration time mean ± S.E.M, Familiar object” value ([2]; choice trial) was 7.64 ± 1.052 s and the “Exploration time mean ± S.E.M, Novel object” value ([2]; choice trial) was 14.21 ± 2.364 s. The “Dose (reversal of formalin induced nociception)” value [3] was “≦10 mg/kg, p.o”, the Kp [4] was 11.7 ± 2.66 and the Inference [5] was “Active”. For the same molecule, the “% Suppression of food intake compared to vehicle, 1 Hour” value ([5]; 1 Hour, 18 hour fasted rats) was 38.45%, the “% Suppression of food intake compared to vehicle, 2 Hour” value ([5]; 2 Hour, 18 hour fasted rats) was 30.23% and the “% Suppression of food intake compared to vehicle, 4 Hour” value ([5]; 4 Hour, 18 hour fasted rats) was 25.60%. For the same molecule, the “% Suppression of food intake compared to vehicle, 6 Hour” value ([5]; 6 Hour, 18 hour fasted rats) was 18.63% and the “Dose (DRL-72s)” value [6] was “≧10 mg/kg, p.o”.
